Experimental data as given in patent US20020081596A1, “Compositions and methods for the identification, assessment, prevention, and therapy of human cancers” (priority 2000, published 2002).

What was measured:
SK-MEL-5 = conditions: SK-MEL-5, melanoma, TAXOL sensitive cell line; cited from earlier work
EKVX = conditions: non-small cell lung carcinoma, TAXOL resistant cell line; cited from earlier work
HT-29 = conditions: HT-29, colon, TAXOL sensitive cell line; cited from earlier work
HCT-15 = conditions: HCT-15, colon, TAXOL resistant cell line; cited from earlier work
T-47D = conditions: breast, TAXOL resistant cell line; cited from earlier work
SN12C = conditions: renal, TAXOL sensitive cell line; cited from earlier work
MDA-MB-435 = conditions: MDA-MB-435, breast, TAXOL sensitive cell line; cited from earlier work
[1] = system: TAXOL sensitive cancer cell lines; assay: Growth inhibition (GI50) by TAXOL, mean of nine sensitive cell lines; assay type: cell-based, human; conditions: mean of the nine TAXOL sensitive cell lines of Table C
Procedure: (§1) One group of nine cell lines was determined to be sensitive to TAXOL (Table C), the other group of nine cell lines was determined to be resistant to TAXOL (Table B). Sensitivity to TAXOL was based of known GI50 values for these cells, which for this study was defined as the concentration of TAXOL required to inhibit growth of the cell line by 50%. More precisely, the quantity used in the calculation is the potency measure −log{GI50}. Pooled RNA from TAXOL sensitive cancer cell lines was used as tester against driver RNA pooled from TAXOL resistant cancer cell lines. Pooled RNA from TAXOL resistant cancer cell lines was used as tester against driver RNA pooled from TAXOL sensitive cancer cell lines.

SK-MEL-2 = conditions: SK-MEL-2, melanoma, TAXOL sensitive cell line; cited from earlier work
HOP-92 = conditions: HOP-92, non-small cell lung carcinoma, TAXOL resistant cell line; cited from earlier work
MALME-3M = conditions: melanoma, TAXOL resistant cell line; cited from earlier work
OVCAR-4 = conditions: OVCAR-4, ovarian, TAXOL resistant cell line; cited from earlier work
OVCAR-3 = conditions: OVCAR-3, ovarian, TAXOL sensitive cell line; cited from earlier work
[2] = system: TAXOL resistant cancer cell lines; assay: Growth inhibition (GI50) by TAXOL, mean of nine resistant cell lines; assay type: cell-based, human; conditions: mean of the nine TAXOL resistant cell lines of Table B
Procedure: as §1

SK-MEL-28 = conditions: SK-MEL-28, melanoma, TAXOL resistant cell line; cited from earlier work
MCF-7 = conditions: MCF-7, breast, TAXOL sensitive cell line; cited from earlier work
MCF-7/AdrRes = conditions: breast, TAXOL resistant cell line; cited from earlier work
ACHN = conditions: renal, TAXOL resistant cell line; cited from earlier work
NCl-H522 = conditions: NCl-H522, non-small cell lung carcinoma, TAXOL sensitive cell line; cited from earlier work
NCl-H460 = conditions: NCl-H460, non-small cell lung carcinoma, TAXOL sensitive cell line; cited from earlier work
tumor = conditions: animal models; cited from earlier work

SMILES: CC(=O)O[C@H]1C(=O)[C@@]2(C)[C@H]([C@H](OC(=O)c3ccccc3)[C@]3(O)C[C@H](OC(=O)[C@H](O)[C@@H](NC(=O)c4ccccc4)c4ccccc4)C(C)=C1C3(C)C)[C@]1(OC(C)=O)CO[C@@H]1C[C@@H]2O [TAXOL]
- Log GI 50 for TAXOL (SK-MEL-5): −8.4
- Log Gl 50 for TAXOL (EKVX): −6.6
- Log GI 50 for TAXOL (HT-29): −8.6
- Log Gl 50 for TAXOL (HCT-15): −6.7
- Log Gl 50 for TAXOL (T-47D): −6.9
- Log GI 50 for TAXOL (SN12C): −8.5
- Log GI 50 for TAXOL (MDA-MB-435): −8.6
- Log GI 50 for TAXOL (Mean) [1]: −8.5
- Log GI 50 for TAXOL (SK-MEL-2): −8.3
- Log Gl 50 for TAXOL (HOP-92): −7.2
- Log Gl 50 for TAXOL (MALME-3M): −6.8
- Log Gl 50 for TAXOL (OVCAR-4): −6.3
- Log GI 50 for TAXOL (OVCAR-3): −8.5
- Log Gl 50 for TAXOL (Mean) [2]: −6.5
- Log Gl 50 for TAXOL (SK-MEL-28): −7.1
- Log GI 50 for TAXOL (MCF-7): −8.5
- Log Gl 50 for TAXOL (MCF-7/AdrRes): −5.5
- Log Gl 50 for TAXOL (ACHN): −5.8
- Log GI 50 for TAXOL (NCl-H522): −8.5
- Log GI 50 for TAXOL (NCl-H460): −8.5

SMILES: CC(=O)O[C@@]12CO[C@@H]1C[C@H](O)[C@@]1(C)C(=O)[C@H](O)C3=C(C)[C@@H](OC(=O)[C@H](O)[C@@H](NC(=O)OC(C)(C)C)c4ccccc4)C[C@@](O)([C@@H](OC(=O)c4ccccc4)[C@H]21)C3(C)C [Taxotere, docetaxel]
- anti-tumor activity (tumor): good anti-tumor activity
